Results published in ChEMBL document CHEMBL1201862, “PubChem BioAssay data set” (2004).
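Step 1: Grow cells in 96-well plates. Step 2: Expose to compound for 48 hours at 5 concentrations. Step 3: Interpolate endpoints linearly; if unreached, use highest concentration. The concentration for 50% growth inhibition is given as GI50.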 The source made the active and inactive calls. Rule as the data show it: active = GI50 up to about 1.1 µM and inactive = higher.

Experiments:
Test in all cases: NCI anticancer screen, dose series, 48 h
[1] = test system: 786-0
[2] = test system: A549
[3] = test system: CAKI-1
[4] = test system: COLO 205
[5] = test system: HCT-116
[6] = test system: HCT-15
[7] = test system: HT-29
[8] = test system: MOLT-4
[9] = test system: Malme-3M
[10] = test system: NCI-H460
[11] = test system: RPMI-8226
[12] = test system: SK-MEL-2
[13] = test system: SNB-19
[14] = test system: SR
[15] = test system: SW-620
[16] = test system: UACC-257
[17] = test system: LOX IMVI
[18] = test system: RXF 393

Row | Structure (SMILES) | GI50 [1] | GI50 [2] | GI50 [3] | GI50 [4] | GI50 [5] | GI50 [6] | GI50 [7] | GI50 [8] | GI50 [9] | GI50 [10] | GI50 [11] | GI50 [12] | GI50 [13] | GI50 [14] | GI50 [15] | GI50 [16] | GI50 [17] | GI50 [18]
1 | N#Cc1c2ccccc2cn1-c1ccc(F)cc1 | 30.3 µM (inactive) | 24.6 µM (inactive) | 33 µM (inactive) | 26.2 µM (inactive) | 16.8 µM (inactive) | > 10 µM | 23.5 µM (inactive) | 27.4 µM (inactive) | 33.7 µM (inactive) | 29.7 µM (inactive) | 22 µM (inactive) | > 10 µM (inactive) | 22.4 µM (inactive) | > 10 µM (inactive) | 46.2 µM (inactive) | 26.9 µM (inactive) |  | 
2 | Cc1cc2c(c3nocc13)C(=O)c1ccccc1C2=O | > 100 µM (inactive) | > 100 µM (inactive) | > 100 µM (inactive) | > 100 µM (inactive) |  | > 100 µM | > 100 µM (inactive) | > 100 µM (inactive) | > 100 µM (inactive) | > 100 µM (inactive) | > 100 µM (inactive) | > 100 µM (inactive) | > 100 µM (inactive) |  | > 100 µM (inactive) | > 100 µM (inactive) | > 100 µM (inactive) | > 100 µM (inactive)
3 | COC1OC2COC(C)(C)OC2C(OC(C)=O)C1NC(=O)N(CCCl)N=O (configuration not stated) | 59.4 µM (inactive) | 83 µM (inactive) | > 100 µM (inactive) | > 100 µM (inactive) | > 100 µM (inactive) | > 100 µM | > 100 µM (inactive) | 59.6 µM (inactive) | > 100 µM (inactive) | 46.7 µM (inactive) |  | > 100 µM (inactive) | 46 µM (inactive) |  | > 100 µM (inactive) | > 100 µM (inactive) | 28.7 µM (inactive) | > 100 µM (inactive)
4 | COC(=O)c1cc2c(c(C(=O)OC)c1O)C(=O)C=CC2=O | 35.7 µM (inactive) | > 42.8 µM (inactive) | > 9.1 µM (inactive) | > 50.2 µM (inactive) | > 9.1 µM (inactive) | 21.6 µM | > 9.1 µM (inactive) |  | > 40.8 µM (inactive) | > 50.1 µM (inactive) | > 9.1 µM (inactive) | > 9.1 µM (inactive) | > 42.7 µM (inactive) |  |  | > 32.8 µM (inactive) | 36.4 µM (inactive) | > 29.1 µM (inactive)
5 | [N-]=[N+]=NC1C(Br)C(=O)NC(=O)N1[C@H]1C[C@H](O)[C@@H](CO)O1 (some centres not stated) | > 100 µM (inactive) | > 100 µM (inactive) |  | > 100 µM (inactive) |  |  | > 100 µM (inactive) | > 100 µM (inactive) |  | > 100 µM (inactive) |  | > 100 µM (inactive) | > 100 µM (inactive) |  | > 100 µM (inactive) | > 100 µM (inactive) | > 100 µM (inactive) | > 100 µM (inactive)
6 | O=c1c2ccccc2nc(-c2ccccc2)n1NC(=S)Nc1ccc(Cl)cc1 | > 100 µM (inactive) | 59.7 µM (inactive) | > 100 µM (inactive) | > 100 µM (inactive) | 55.1 µM (inactive) | > 100 µM | 53.8 µM (inactive) | 69 µM (inactive) | > 100 µM (inactive) | 59.4 µM (inactive) | 69.7 µM (inactive) | > 100 µM (inactive) |  | 65.9 µM (inactive) | > 100 µM (inactive) | 75.9 µM (inactive) | > 100 µM (inactive) | 41.9 µM (inactive)
7 | CSc1nc(SC)c2c(C(N)=S)n[nH]c2n1 | 28.4 µM (inactive) | 23 µM (inactive) | 21.1 µM (inactive) | 18.2 µM (inactive) |  | 36.2 µM | 33 µM (inactive) | 27 µM (inactive) | 29.8 µM (inactive) | 23.6 µM (inactive) | 23.1 µM (inactive) | 24 µM (inactive) | 27.1 µM (inactive) | 30.7 µM (inactive) | 37 µM (inactive) | 21.8 µM (inactive) | 24.1 µM (inactive) | 22.8 µM (inactive)
8 | N#CC12CCC1C1CCCCC12N1CCSCC1 (configuration not stated) | > 100 µM (inactive) | > 100 µM (inactive) | > 100 µM (inactive) | > 100 µM (inactive) | > 100 µM (inactive) | > 100 µM | > 100 µM (inactive) | 81.8 µM (inactive) |  | > 100 µM (inactive) | 51.1 µM (inactive) | 35.4 µM (inactive) | > 100 µM (inactive) | 60.5 µM (inactive) | > 100 µM (inactive) | > 10 µM (inactive) |  | 18.1 µM (inactive)
9 | CC(C)C/C(CC(=O)CCC(=O)Nc1ccccc1[N+](=O)[O-])=N\NC(=O)c1cc2ccccc2cc1O | 36.8 µM (inactive) | > 100 µM (inactive) | 68.2 µM (inactive) | 28.6 µM (inactive) | 49.1 µM (inactive) | 31.6 µM | 91.2 µM (inactive) | 20.2 µM (inactive) | 42.6 µM (inactive) | 33.7 µM (inactive) | 50 µM (inactive) |  | 45.5 µM (inactive) | 30.2 µM (inactive) | 41.4 µM (inactive) | 37 µM (inactive) | 27 µM (inactive) | 9.79 µM (inactive)
10 | O=C(COC(=O)c1cccc2c(=O)c3ccccc3[nH]c12)Nc1ccccc1 | > 100 µM (inactive) | 50.8 µM (inactive) | 45.8 µM (inactive) | 21.7 µM (inactive) | 24.2 µM (inactive) |  | 31.8 µM (inactive) | 17.1 µM (inactive) | 35.9 µM (inactive) | 94.6 µM (inactive) | 23.7 µM (inactive) |  | > 100 µM (inactive) | 18.9 µM (inactive) | 90.8 µM (inactive) | 38.2 µM (inactive) | 24.2 µM (inactive) | 33.1 µM (inactive)
11 | CC(=O)NC1C(OCc2ccccc2)OC(COC(=O)CCCCCCCCCCNC(=O)c2cccc3c(=O)c4ccccc4[nH]c23)C(O)C1OC(C)C(=O)NC(C)C(=O)NC(CCC(N)=O)C(N)=O (configuration not stated) | > 100 µM (inactive) | 40.9 µM (inactive) | > 100 µM (inactive) | 85.3 µM (inactive) | 79.8 µM (inactive) | 85.3 µM | 75.9 µM (inactive) | 47.1 µM (inactive) |  | 61.5 µM (inactive) | 32.1 µM (inactive) | 50.8 µM (inactive) | 47.3 µM (inactive) | 40.1 µM (inactive) | 96.6 µM (inactive) | > 100 µM (inactive) | 49.3 µM (inactive) | 
12 | S=c1cc(S)c2c(=S)sc3nc4ccccn4c(=S)c3c2s1 | 75.5 µM (inactive) | > 100 µM (inactive) | > 100 µM (inactive) |  | 25 µM (inactive) | 49.8 µM | 45.2 µM (inactive) | 27.2 µM (inactive) | > 100 µM (inactive) | 21.3 µM (inactive) | > 100 µM (inactive) | 56.2 µM (inactive) | 52.5 µM (inactive) | 25.9 µM (inactive) | > 100 µM (inactive) |  | 47.2 µM (inactive) | > 100 µM (inactive)
13 | CCOC(=O)/C(=C\c1ccc(N(CCC#N)CCC#N)cc1)NC(=O)c1cc([N+](=O)[O-])ccc1Cl | > 100 µM (inactive) | > 100 µM (inactive) | > 100 µM (inactive) | > 100 µM (inactive) | > 100 µM (inactive) | > 100 µM | > 100 µM (inactive) | 72.6 µM (inactive) | > 100 µM (inactive) | > 100 µM (inactive) | 56.6 µM (inactive) | > 100 µM (inactive) | > 100 µM (inactive) |  | > 100 µM (inactive) | > 100 µM (inactive) | 69 µM (inactive) | > 100 µM (inactive)
